Data as given in ChEMBL document CHEMBL3600338, “NMR-based conformational analysis of 2',6-disubstituted uridines and antiviral evaluation of new phosphoramidate prodrugs” (Bioorg Med Chem, 2015).
Calls of active or inactive are those of the source.

How the values were obtained:
Hepatitis C virus = experiment: Antiviral activity against Hepatitis C virus genotype 1b Con1 in HuH 5-2 replicon system assessed as reduction of viral replication; assay type: functional; conditions: Hepacivirus hominis
Chikungunya virus = experiment: Antiviral activity against Chikungunya virus assessed as reduction of viral replication; assay type: functional
Enterovirus A71 = experiment: Antiviral activity against Enterovirus 71 infected in human HeLa cells assessed as reduction of viral replication; assay type: functional, organism-based
rhinovirus B14 = experiment: Antiviral activity against Rhinovirus 14 infected in human HeLa cells assessed as reduction of viral replication; assay type: functional, organism-based
Vero [1] = experiment: Antiviral activity against Coxsackievirus B4 E2 infected in African green monkey Vero cells assessed as reduction of viral replication; assay type: functional, cell-based; conditions: Coxsackievirus B4 (strain E2)
Poliovirus 1 = experiment: Antiviral activity against Poliovirus 1 Sabin infected in African green monkey BGM cells assessed as reduction of viral replication; assay type: functional, organism-based
Vero [2] = experiment: Antiviral activity against Coxsackievirus B3 Nancy infected in African green monkey Vero cells assessed as reduction of viral replication; assay type: functional, cell-based; conditions: Coxsackievirus B3 (strain Nancy)

Measured: Activity

CC(C)OC(=O)[C@H](C)NP(=O)(OC[C@H]1OC(n2c(N=[N+]=[N-])cc(=O)[nH]c2=O)[C@H](O)[C@@H]1O)Oc1ccccc1 (some centres not stated)
inactive: all assays above

Cc1cc(=O)[nH]c(=O)n1C1O[C@H](COP(=O)(N[C@@H](C)C(=O)OC(C)C)Oc2ccccc2)[C@@H](O)[C@H]1O (some centres not stated)
inactive: all assays above

CC(C)OC(=O)[C@H](C)NP(=O)(OC[C@H]1OC(n2c(I)cc(=O)[nH]c2=O)[C@H](O)[C@@H]1O)Oc1ccccc1 (some centres not stated)
inactive: all assays above

Cc1cc(=O)[nH]c(=O)n1C1O[C@H](COP(=O)(N[C@@H](C)C(=O)OC(C)C)Oc2ccccc2)[C@@H](O)[C@@]1(C)O (some centres not stated)
inactive: all assays above

CC(C)OC(=O)[C@H](C)NP(=O)(OC[C@H]1OC(n2c(C#N)cc(=O)[nH]c2=O)[C@](C)(O)[C@@H]1O)Oc1ccccc1 (some centres not stated)
inactive: all assays above

CC(C)OC(=O)[C@H](C)NP(=O)(OC[C@H]1OC(n2c(C#N)cc(=O)[nH]c2=O)[C@H](O)[C@@H]1O)Oc1ccccc1 (some centres not stated)
inactive: all assays above
